{"source": "patent US20260199325A1", "about": "“NOVEL SUBSTITUTED PYRAZINE-CARBOXAMIDE-IMIDAZOPYRIDINE DERIVATIVES” (Boehringer Ingelheim International GmbH, priority 2022, published 2026)"}
{"target": "T1, human metabotropic Glutamate 4 receptor (Homo sapiens, UniProt Q14833)", "T1 construct": "expressed in transfected cells; host or cells: HEK293", "T1 sequence (Q14833 33-912)": "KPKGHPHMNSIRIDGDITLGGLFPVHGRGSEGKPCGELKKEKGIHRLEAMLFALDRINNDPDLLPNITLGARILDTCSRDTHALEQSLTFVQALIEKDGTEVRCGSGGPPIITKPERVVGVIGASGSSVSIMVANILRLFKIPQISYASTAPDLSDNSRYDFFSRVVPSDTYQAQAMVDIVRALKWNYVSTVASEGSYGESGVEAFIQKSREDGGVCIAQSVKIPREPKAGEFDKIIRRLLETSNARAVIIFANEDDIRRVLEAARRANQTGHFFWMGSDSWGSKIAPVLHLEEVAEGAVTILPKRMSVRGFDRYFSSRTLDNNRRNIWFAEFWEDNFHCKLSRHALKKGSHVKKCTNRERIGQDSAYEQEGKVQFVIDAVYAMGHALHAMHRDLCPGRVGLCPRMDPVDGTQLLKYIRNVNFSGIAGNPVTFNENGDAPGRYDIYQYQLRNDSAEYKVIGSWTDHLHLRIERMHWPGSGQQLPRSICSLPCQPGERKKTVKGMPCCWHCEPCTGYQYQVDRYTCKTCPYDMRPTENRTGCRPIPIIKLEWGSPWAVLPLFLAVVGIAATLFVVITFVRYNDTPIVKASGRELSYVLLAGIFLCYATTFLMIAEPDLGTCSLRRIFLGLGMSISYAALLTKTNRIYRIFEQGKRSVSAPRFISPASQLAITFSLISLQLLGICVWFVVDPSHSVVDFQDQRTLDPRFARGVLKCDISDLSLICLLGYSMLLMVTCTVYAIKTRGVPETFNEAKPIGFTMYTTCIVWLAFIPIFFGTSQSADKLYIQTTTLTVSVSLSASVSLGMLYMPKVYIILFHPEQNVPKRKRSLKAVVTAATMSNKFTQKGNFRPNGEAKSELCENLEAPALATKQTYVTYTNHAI", "assay": "In vitro testing of mGluR4 potency (Assay A), cAMP HTRF in HEK293 cells", "type": "cell-based", "conditions": "Table 2; HEK293 cell overexpressing human mGluR4; 10 uM L-Glutamic acid, 1 uM forskolin", "protocol": "A. In Vitro Testing of mGluR4 Potency\nThe in vitro activity of the compounds according to the invention may be investigated as follows:\nThe HEK293 cell overexpressing the human metabotropic Glutamate 4 receptor were thawed at 37° C. and immediately diluted with cell culture medium. After centrifugation, the cell pellet is re-suspended in medium and then distributed from a stirred spinner flask into the wells of the assay plate. The plates are incubated for one hour at room temperature before they are incubated for 24 hours at 37° C./5% C02. After washing the cells in the plate three times with 80 uL HBSS/HEPES buffer (10 uL buffer remained in the wells after washing), 5 uL per well of compounds diluted in HBSS/HEPES buffer containing 0.2% BSA (final concentration: 0.1%) and 1 mM IBMX (final concentration: 0.5 mM) are added to the wells of the assay plate. Thereafter 5 uL per well of L-Glutamic acid (final concentration: 10 uM), forskolin (final concentration: 1 uM) and 1 mM IBMX (final concentration: 0.5 mM) dissolved in HBSS/HEPES buffer containing 0.2% BSA (final concentration: 0.1%) are added to the assay plate (final DMSO concentration: 1%). Several wells of the assay plate are used either for the positive and the negative controls or for the cAMP standard curve. The assay plate is incubated for 30 minutes at room temperature. Then 5 ul per well of Anti-cAMP-Antibody-d2 solution and 5 ul per well of cAMP-Europium Cryptate dilution are added to all wells of the plate and the plate is incubated another 60 minutes light protected at room temperature. The emission at 615 nm and 665 nm (Excitation wavelength: 320 nm) are measured on the EnVision™ reader (PerkinElmer). The ratio between the emission at 665 nm and 615 is calculated by the reader. The whole assay is performed in the dark or under green light.\nThe cAMP standard is prepared by diluting the cAMP stock solution with HBSS/Hepes buffer: 5 μl/well of the cAMP dilutions (in HBSS/Hepes buffer containing 1 mM IBMX and 0.2% BSA-final concentration: 0.5 mM IBMX and 0.1% BSA) are added to 10 ul/well HBSS/Hepes buffer plus 5 ul/well 4% DMSO in HBSS/Hepes containing 0.2% BSA (final DMSO concentration: 1%-like in the wells containing compounds) in the wells of the assay plate. The final cAMP concentrations in the assay plate were: 0, 0.17, 0.69, 2.78, 11.1, 44.5, 178, and 712 nM (two wells/cAMP concentration).\nEach assay microtiter plate contained also wells with vehicle controls instead of compound as controls for L-Glutamic acid induced signal (negative control; 100% CTL; 10 uM L-Glutamic acid+1 uM forskolin+0.5 mM IBMX+1% DMSO) and wells with vehicle controls without L-Glutamic acid as controls for non-specific changes in signal (positive control; 0% CTL; 0 uM L-Glutamic acid+1 uM forskolin+0.5 mM IBMX+1% DMSO).\nThe analysis of the data is performed by the calculation the ratio between the emission at 665 nm and the emission at 615 nm (Em665/Em615 ratio). Thereafter the signals of the compounds are normalized using the positive and negative controls by the following formula:\nPoC=100×((Signal Sample−Positive Control)/(Negative Control−Positive Control))", "units": {"IC50": "nM"}}
{"smiles": "Cc1cnc(C(=O)N[C@H](c2nc3cnc(C(F)(F)F)cc3n2C(C)C)C2CC2)cn1", "note": "[Example 43, N-[(S)-cyclopropyl[1-(propan-2-yl)-6-(trifluoromethyl)-1H-imidazo[4,5-c]pyridin-2-yl]methyl]-5-methylpyrazine-2-carboxamide]", "IC50": 24}
{"smiles": "Cc1c(C#N)cnc2c1nc([C@@H](NC(=O)c1cnc(C(F)F)cn1)[C@@H](C)OC(F)F)n2C(C)C", "note": "[Example 20, N-[(1R,2R)-1-[6-cyano-7-methyl-3-(propan-2-yl)-3H-imidazo[4,5-b]pyridin-2-yl]-2-(difluoromethoxy)propyl]-5-(difluoromethyl)pyrazine-2-carboxamide]", "IC50": 8}
{"smiles": "CCn1c([C@@H](NC(=O)c2cnc(C(F)F)cn2)C2CC2)nc2cc(C(F)(F)F)ncc21", "note": "[Example 48, N-[(S)-cyclopropyl[3-ethyl-6-(trifluoromethyl)-3H-imidazo[4,5-c]pyridin-2-yl]methyl]-5-(difluoromethyl)pyrazine-2-carboxamide]", "IC50": 48}
{"smiles": "Cc1cnc(C(=O)N[C@H](c2nc3cnc(C(F)(F)F)cc3n2C(C)C)[C@@H]2COCCO2)cn1", "note": "[Example 50, N-[(R)-[(2R)-1,4-dioxan-2-yl][1-(propan-2-yl)-6-(trifluoromethyl)-1H-imidazo[4,5-c]pyridin-2-yl]methyl]-5-methylpyrazine-2-carboxamide]", "IC50": 80}
{"smiles": "Cc1cnc(C(=O)N[C@H](c2nc3c(C)nc(C(F)(F)F)cc3n2C(C)C)C2CC2)cn1", "note": "[Example 16, N-[(S)-cyclopropyl[4-methyl-1-(propan-2-yl)-6-(trifluoromethyl)-1H-imidazo[4,5-c]pyridin-2-yl]methyl]-5-methylpyrazine-2-carboxamide]", "IC50": 13}
{"smiles": "CCn1c([C@@H](NC(=O)c2cnc(C)cn2)C2CC2)nc2c(C)nc(C(F)(F)F)cc21", "note": "[Example 45, N-[(S)-cyclopropyl[1-ethyl-4-methyl-6-(trifluoromethyl)-1H-imidazo[4,5-c]pyridin-2-yl]methyl]-5-methylpyrazine-2-carboxamide]", "IC50": 33}
{"smiles": "CO[C@@H](C)[C@H](NC(=O)c1cnc(C)cn1)c1nc2cc(Cl)cnc2n1C(C)C", "note": "[Example 23, N-[(1R,2S)-1-[6-chloro-3-(propan-2-yl)-3H-imidazo[4,5-b]pyridin-2-yl]-2-methoxypropyl]-5-methylpyrazine-2-carboxamide]", "IC50": 10}
{"smiles": "CO[C@H](C)[C@H](NC(=O)c1cnc(C(F)F)cn1)c1nc2c(C)c(C#N)cnc2n1C(C)C", "note": "[Example 19, N-[(1R,2R)-1-[6-cyano-7-methyl-3-(propan-2-yl)-3H-imidazo[4,5-b]pyridin-2-yl]-2-methoxypropyl]-5-(difluoromethyl)pyrazine-2-carboxamide]", "IC50": 8}
{"smiles": "Cc1c(C#N)cnc2c1nc([C@@H](NC(=O)c1cnc(C(F)F)cn1)C1CC1)n2C(C)C", "note": "[Example 4, N-[(S)-[6-cyano-7-methyl-3-(propan-2-yl)-3H-imidazo[4,5-b]pyridin-2-yl](cyclopropyl)methyl]-5-(difluoromethyl)pyrazine-2-carboxamide]", "IC50": 2}
{"smiles": "COc1c(Br)cnc2c1nc([C@@H](NC(=O)c1cnc(C)cn1)C1CC1)n2C(C)C", "note": "[Example 5, N-[(S)-[6-bromo-7-methoxy-3-(propan-2-yl)-3H-imidazo[4,5-b]pyridin-2-yl](cyclopropyl)methyl]-5-methylpyrazine-2-carboxamide]", "IC50": 2}
{"smiles": "O=C(N[C@H](c1nc2cc(C(F)(F)F)ncc2n1CC(F)F)C1CC1)c1cnc(C(F)F)cn1", "note": "[Example 35, N-[(S)-cyclopropyl[3-(2,2-difluoroethyl)-6-(trifluoromethyl)-3H-imidazo[4,5-c]pyridin-2-yl]methyl]-5-(difluoromethyl)pyrazine-2-carboxamide]", "IC50": 18}
{"smiles": "Cc1cnc(C(=O)N[C@H](c2nc3c(C)c(C#N)cnc3n2C(C)C)[C@@H](C)OC(F)F)cn1", "note": "[Example 21, N-[(1R,2R)-1-[6-cyano-7-methyl-3-(propan-2-yl)-3H-imidazo[4,5-b]pyridin-2-yl]-2-(difluoromethoxy)propyl]-5-methylpyrazine-2-carboxamide]", "IC50": 9}
{"smiles": "CCn1c([C@@H](NC(=O)c2cnc(C(F)F)cn2)C2CC2)nc2cnc(C(F)(F)F)cc21", "note": "[Example 49, N-[(S)-cyclopropyl[1-ethyl-6-(trifluoromethyl)-1H-imidazo[4,5-c]pyridin-2-yl]methyl]-5-(difluoromethyl)pyrazine-2-carboxamide]", "IC50": 53}
{"smiles": "CCn1c([C@@H](NC(=O)c2cnc(C)cn2)C2CC2)nc2cc(C(F)(F)F)ncc21", "note": "[Example 47, N-[(S)-cyclopropyl[3-ethyl-6-(trifluoromethyl)-3H-imidazo[4,5-c]pyridin-2-yl]methyl]-5-methylpyrazine-2-carboxamide]", "IC50": 41}
{"smiles": "Cc1cnc(C(=O)N[C@H](c2nc3c(C)c(C#N)cnc3n2C(C)C)C2CC2)cn1", "note": "[Example 28, N-[(S)-[6-cyano-7-methyl-3-(propan-2-yl)-3H-imidazo[4,5-b]pyridin-2-yl](cyclopropyl)methyl]-5-methylpyrazine-2-carboxamide]", "IC50": 6}
{"smiles": "Cc1cnc(C(=O)N[C@@H](CC2CC2)c2nc3c(C)c(C#N)cnc3n2C(C)C)cn1", "note": "[Example 14, N-[(1S)-1-[6-cyano-7-methyl-3-(propan-2-yl)-3H-imidazo[4,5-b]pyridin-2-yl]-2-cyclopropylethyl]-5-methylpyrazine-2-carboxamide]", "IC50": 5}
{"smiles": "CC(C)n1c([C@@H](NC(=O)c2cnc(C(F)F)cn2)C2CC2)nc2cc(F)cnc21", "note": "[Example 32, N-[(S)-cyclopropyl[6-fluoro-3-(propan-2-yl)-3H-imidazo[4,5-b]pyridin-2-yl]methyl]-5-(difluoromethyl)pyrazine-2-carboxamide]", "IC50": 15}
{"smiles": "Cc1cnc(C(=O)N[C@H](c2nc3c(C)c(C#N)cnc3n2C(C)C)[C@H]2CCCO2)cn1", "note": "[Example 40, N-[(R)-[6-cyano-7-methyl-3-(propan-2-yl)-3H-imidazo[4,5-b]pyridin-2-yl][(2R)-oxolan-2-yl]methyl]-5-methylpyrazine-2-carboxamide]", "IC50": 21}
{"smiles": "CO[C@H](C)[C@H](NC(=O)c1cnc(C)cn1)c1nc2cc(Cl)cnc2n1C(C)C", "note": "[Example 13, N-[(1R,2R)-1-[6-chloro-3-(propan-2-yl)-3H-imidazo[4,5-b]pyridin-2-yl]-2-methoxypropyl]-5-methylpyrazine-2-carboxamide]", "IC50": 4}
{"smiles": "Cc1cnc(C(=O)N[C@@H](C[C@H]2CCCO2)c2nc3c(C)c(C#N)cnc3n2C(C)C)cn1", "note": "[Example 18, N-[(1S)-1-[6-cyano-7-methyl-3-(propan-2-yl)-3H-imidazo[4,5-b]pyridin-2-yl]-2-[(2R)-oxolan-2-yl]ethyl]-5-methylpyrazine-2-carboxamide]", "IC50": 7}
{"smiles": "Cc1cnc(C(=O)N[C@H](c2nc3cc(F)cnc3n2C(C)C)C2CC2)cn1", "note": "[Example 44, N-[(S)-cyclopropyl[6-fluoro-3-(propan-2-yl)-3H-imidazo[4,5-b]pyridin-2-yl]methyl]-5-methylpyrazine-2-carboxamide]", "IC50": 26}
{"smiles": "COC(C)(C)[C@H](NC(=O)c1cnc(C)cn1)c1nc2c(C)c(C#N)cnc2n1C(C)C", "note": "[Example 2, N-[(IR)-1-[6-cyano-7-methyl-3-(propan-2-yl)-3H-imidazo[4,5-b]pyridin-2-yl]-2-methoxy-2-methylpropyl]-5-methylpyrazine-2-carboxamide]", "IC50": 2}
